What was measured:
Format in all cases: in vivo
[1] = tested on: Echinochloa crus-galli; experiment: Paddy herbicidal activity test; conditions: irrigated paddy pot, treated at 3.5 leaf stage of Echinochloa crus-galli, 30 days
Description: (§1) Rice paddy soil was filled into a 1/10000 are pot followed by the addition of suitable amounts of water and chemical fertilizer, kneading, seeding with Echinochloa crus-galli, Monochoria vaginalis and Scirpus juncoides and maintaining in an irrigated state at a water depth of 3 cm. Wettable powder of Target Compound (I) shown in Table 1 prepared in compliance with the preparation examples were diluted with a suitable amount of water, rice plants in the 2.0 leaf stage were transplanted during 3.5 leaf stage of Echinochloa crus-galli, and treated by dropping in chemical in the prescribed amount per are using a pipette. After treating for 30 days in a glass greenhouse at an average atmospheric temperature of 30° C., the herbicidal efficacy thereof was investigated. Evaluation of herbicidal efficacy was carried out by comparing growth inhibition rate (%) with an untreated group, while evaluation of phytotoxicity was carried out by comparing growth inhibition rate (%) with the state of a complete eradication group, and were evaluated at 11 levels indicated below. [table]

[2] = tested on: Monochoria vaginalis; experiment: Paddy herbicidal activity test; conditions: irrigated paddy pot, 30 days
Description: as §1

[3] = tested on: Scirpus juncoides; experiment: Paddy herbicidal activity test; conditions: irrigated paddy pot, 30 days
Description: as §1

[4] = tested on: Rice plants; experiment: Paddy herbicidal activity test, phytotoxicity to transplanted rice; conditions: rice transplanted at 2.0 leaf stage, 30 days
Description: as §1

## N#Cc1cnn(-c2nn3c(c2Cl)CCCC3)c1N(CC1CC1)C(=O)C(F)(F)C(F)(F)F [Compound 3]
[1]; 1g a.i./10a
  herbicidal efficacy (growth inhibition rate level) Echinochloa crus-galli: 8 (8: 80% to less than 90%)
[1]; 5g a.i./10a
  herbicidal efficacy (growth inhibition rate level) Echinochloa crus-galli: 8 (8: 80% to less than 90%)
[2]; 1g a.i./10a
  herbicidal efficacy (growth inhibition rate level) Monochoria vaginalis: 7 (7: 70% to less than 80%)
[2]; 5g a.i./10a
  herbicidal efficacy (growth inhibition rate level) Monochoria vaginalis: 7 (7: 70% to less than 80%)
[3]; 1g a.i./10a
  herbicidal efficacy (growth inhibition rate level) Scirpus juncoides: 7 (7: 70% to less than 80%)
[3]; 5g a.i./10a
  herbicidal efficacy (growth inhibition rate level) Scirpus juncoides: 8 (8: 80% to less than 90%)
[4]; 1g a.i./10a
  phytotoxicity (growth inhibition rate level) Rice plants: 0 (0 (exponent): 0% to less than 10% (growth inhibition rate))
[4]; 5g a.i./10a
  phytotoxicity (growth inhibition rate level) Rice plants: 0 (0 (exponent): 0% to less than 10% (growth inhibition rate))

## CC1(CNc2c(C#N)cnn2-c2nn3c(c2Cl)CCCC3)CC1 [Compound 4]
[1]; 1g a.i./10a
  herbicidal efficacy (growth inhibition rate level) Echinochloa crus-galli: 9 (9: 90% to less than 100%)
[1]; 5g a.i./10a
  herbicidal efficacy (growth inhibition rate level) Echinochloa crus-galli: 10 (10: 100%)
[2]; 1g a.i./10a
  herbicidal efficacy (growth inhibition rate level) Monochoria vaginalis: 9 (9: 90% to less than 100%)
[2]; 5g a.i./10a
  herbicidal efficacy (growth inhibition rate level) Monochoria vaginalis: 9 (9: 90% to less than 100%)
[3]; 1g a.i./10a
  herbicidal efficacy (growth inhibition rate level) Scirpus juncoides: 8 (8: 80% to less than 90%)
[3]; 5g a.i./10a
  herbicidal efficacy (growth inhibition rate level) Scirpus juncoides: 8 (8: 80% to less than 90%)
[4]; 1g a.i./10a
  phytotoxicity (growth inhibition rate level) Rice plants: 0 (0 (exponent): 0% to less than 10% (growth inhibition rate))
[4]; 5g a.i./10a
  phytotoxicity (growth inhibition rate level) Rice plants: 1 (1: 10% to less than 20%)

## N#Cc1cnn(-c2nn3c(c2Cl)CCC3)c1NCC1CC1 [Compound 5]
[1]; 1g a.i./10a
  herbicidal efficacy (growth inhibition rate level) Echinochloa crus-galli: 9 (9: 90% to less than 100%)
[1]; 5g a.i./10a
  herbicidal efficacy (growth inhibition rate level) Echinochloa crus-galli: 10 (10: 100%)
[2]; 1g a.i./10a
  herbicidal efficacy (growth inhibition rate level) Monochoria vaginalis: 9 (9: 90% to less than 100%)
[2]; 5g a.i./10a
  herbicidal efficacy (growth inhibition rate level) Monochoria vaginalis: 9 (9: 90% to less than 100%)
[3]; 1g a.i./10a
  herbicidal efficacy (growth inhibition rate level) Scirpus juncoides: 8 (8: 80% to less than 90%)
[3]; 5g a.i./10a
  herbicidal efficacy (growth inhibition rate level) Scirpus juncoides: 9 (9: 90% to less than 100%)
[4]; 1g a.i./10a
  phytotoxicity (growth inhibition rate level) Rice plants: 0 (0 (exponent): 0% to less than 10% (growth inhibition rate))
[4]; 5g a.i./10a
  phytotoxicity (growth inhibition rate level) Rice plants: 1 (1: 10% to less than 20%)

## N#Cc1cnn(-c2nn3c(c2Cl)CCC3)c1N(CC1CC1)C(=O)C(F)(F)F [Compound 6]
[1]; 1g a.i./10a
  herbicidal efficacy (growth inhibition rate level) Echinochloa crus-galli: 9 (9: 90% to less than 100%)
[1]; 5g a.i./10a
  herbicidal efficacy (growth inhibition rate level) Echinochloa crus-galli: 9 (9: 90% to less than 100%)
[2]; 1g a.i./10a
  herbicidal efficacy (growth inhibition rate level) Monochoria vaginalis: 8 (8: 80% to less than 90%)
[2]; 5g a.i./10a
  herbicidal efficacy (growth inhibition rate level) Monochoria vaginalis: 9 (9: 90% to less than 100%)
[3]; 1g a.i./10a
  herbicidal efficacy (growth inhibition rate level) Scirpus juncoides: 7 (7: 70% to less than 80%)
[3]; 5g a.i./10a
  herbicidal efficacy (growth inhibition rate level) Scirpus juncoides: 8 (8: 80% to less than 90%)
[4]; 1g a.i./10a
  phytotoxicity (growth inhibition rate level) Rice plants: 0 (0 (exponent): 0% to less than 10% (growth inhibition rate))
[4]; 5g a.i./10a
  phytotoxicity (growth inhibition rate level) Rice plants: 0 (0 (exponent): 0% to less than 10% (growth inhibition rate))

## CC(Nc1c(C#N)cnn1-c1nn2c(c1Cl)CCCC2)C1(C)CC1 (stereo not shown) [Compound 8]
[1]; 1g a.i./10a
  herbicidal efficacy (growth inhibition rate level) Echinochloa crus-galli: 9 (9: 90% to less than 100%)
[1]; 5g a.i./10a
  herbicidal efficacy (growth inhibition rate level) Echinochloa crus-galli: 9 (9: 90% to less than 100%)
[2]; 1g a.i./10a
  herbicidal efficacy (growth inhibition rate level) Monochoria vaginalis: 7 (7: 70% to less than 80%)
[2]; 5g a.i./10a
  herbicidal efficacy (growth inhibition rate level) Monochoria vaginalis: 7 (7: 70% to less than 80%)
[3]; 1g a.i./10a
  herbicidal efficacy (growth inhibition rate level) Scirpus juncoides: 7 (7: 70% to less than 80%)
[3]; 5g a.i./10a
  herbicidal efficacy (growth inhibition rate level) Scirpus juncoides: 8 (8: 80% to less than 90%)
[4]; 1g a.i./10a
  phytotoxicity (growth inhibition rate level) Rice plants: 0 (0 (exponent): 0% to less than 10% (growth inhibition rate))
[4]; 5g a.i./10a
  phytotoxicity (growth inhibition rate level) Rice plants: 0 (0 (exponent): 0% to less than 10% (growth inhibition rate))

## CC1CC1CN(C(=O)C(F)(F)F)c1c(C#N)cnn1-c1nn2c(c1Cl)CCCC2 (stereo not shown) [Compound 13]
[1]; 1g a.i./10a
  herbicidal efficacy (growth inhibition rate level) Echinochloa crus-galli: 9 (9: 90% to less than 100%)
[1]; 5g a.i./10a
  herbicidal efficacy (growth inhibition rate level) Echinochloa crus-galli: 9 (9: 90% to less than 100%)
[2]; 1g a.i./10a
  herbicidal efficacy (growth inhibition rate level) Monochoria vaginalis: 8 (8: 80% to less than 90%)
[2]; 5g a.i./10a
  herbicidal efficacy (growth inhibition rate level) Monochoria vaginalis: 8 (8: 80% to less than 90%)
[3]; 1g a.i./10a
  herbicidal efficacy (growth inhibition rate level) Scirpus juncoides: 8 (8: 80% to less than 90%)
[3]; 5g a.i./10a
  herbicidal efficacy (growth inhibition rate level) Scirpus juncoides: 8 (8: 80% to less than 90%)
[4]; 1g a.i./10a
  phytotoxicity (growth inhibition rate level) Rice plants: 0 (0 (exponent): 0% to less than 10% (growth inhibition rate))
[4]; 5g a.i./10a
  phytotoxicity (growth inhibition rate level) Rice plants: 1 (1: 10% to less than 20%)

## CC(C1CC1)N(C(=O)C(F)(F)F)c1c(C#N)cnn1-c1nn2c(c1Cl)CCCC2 (stereo not shown) [Compound 14]
[1]; 1g a.i./10a
  herbicidal efficacy (growth inhibition rate level) Echinochloa crus-galli: 8 (8: 80% to less than 90%)
[1]; 5g a.i./10a
  herbicidal efficacy (growth inhibition rate level) Echinochloa crus-galli: 9 (9: 90% to less than 100%)
[2]; 1g a.i./10a
  herbicidal efficacy (growth inhibition rate level) Monochoria vaginalis: 7 (7: 70% to less than 80%)
[2]; 5g a.i./10a
  herbicidal efficacy (growth inhibition rate level) Monochoria vaginalis: 7 (7: 70% to less than 80%)
[3]; 1g a.i./10a
  herbicidal efficacy (growth inhibition rate level) Scirpus juncoides: 7 (7: 70% to less than 80%)
[3]; 5g a.i./10a
  herbicidal efficacy (growth inhibition rate level) Scirpus juncoides: 8 (8: 80% to less than 90%)
[4]; 1g a.i./10a
  phytotoxicity (growth inhibition rate level) Rice plants: 0 (0 (exponent): 0% to less than 10% (growth inhibition rate))
[4]; 5g a.i./10a
  phytotoxicity (growth inhibition rate level) Rice plants: 0 (0 (exponent): 0% to less than 10% (growth inhibition rate))

## O=[N+]([O-])c1cnn(-c2nn3c(c2Cl)CCCC3)c1NCC1CC1 [Compound 114]
[1]; 1g a.i./10a
  herbicidal efficacy (growth inhibition rate level) Echinochloa crus-galli: 9 (9: 90% to less than 100%)
[1]; 5g a.i./10a
  herbicidal efficacy (growth inhibition rate level) Echinochloa crus-galli: 9 (9: 90% to less than 100%)
[2]; 1g a.i./10a
  herbicidal efficacy (growth inhibition rate level) Monochoria vaginalis: 7 (7: 70% to less than 80%)
[2]; 5g a.i./10a
  herbicidal efficacy (growth inhibition rate level) Monochoria vaginalis: 8 (8: 80% to less than 90%)
[3]; 1g a.i./10a
  herbicidal efficacy (growth inhibition rate level) Scirpus juncoides: 8 (8: 80% to less than 90%)
[3]; 5g a.i./10a
  herbicidal efficacy (growth inhibition rate level) Scirpus juncoides: 9 (9: 90% to less than 100%)
[4]; 1g a.i./10a
  phytotoxicity (growth inhibition rate level) Rice plants: 0 (0 (exponent): 0% to less than 10% (growth inhibition rate))
[4]; 5g a.i./10a
  phytotoxicity (growth inhibition rate level) Rice plants: 0 (0 (exponent): 0% to less than 10% (growth inhibition rate))

## O=C(N(CC1CC1)c1c([N+](=O)[O-])cnn1-c1nn2c(c1Cl)CCCC2)C(F)(F)F [Compound 115]
[1]; 1g a.i./10a
  herbicidal efficacy (growth inhibition rate level) Echinochloa crus-galli: 8 (8: 80% to less than 90%)
[1]; 5g a.i./10a
  herbicidal efficacy (growth inhibition rate level) Echinochloa crus-galli: 9 (9: 90% to less than 100%)
[2]; 1g a.i./10a
  herbicidal efficacy (growth inhibition rate level) Monochoria vaginalis: 8 (8: 80% to less than 90%)
[2]; 5g a.i./10a
  herbicidal efficacy (growth inhibition rate level) Monochoria vaginalis: 8 (8: 80% to less than 90%)
[3]; 1g a.i./10a
  herbicidal efficacy (growth inhibition rate level) Scirpus juncoides: 9 (9: 90% to less than 100%)
[3]; 5g a.i./10a
  herbicidal efficacy (growth inhibition rate level) Scirpus juncoides: 8 (8: 80% to less than 90%)
[4]; 1g a.i./10a
  phytotoxicity (growth inhibition rate level) Rice plants: 0 (0 (exponent): 0% to less than 10% (growth inhibition rate))
[4]; 5g a.i./10a
  phytotoxicity (growth inhibition rate level) Rice plants: 1 (1: 10% to less than 20%)

## O=[N+]([O-])c1cnn(-c2nn3c(c2Br)CCCC3)c1NCC1CC1 [Compound 158]
[1]; 1g a.i./10a
  herbicidal efficacy (growth inhibition rate level) Echinochloa crus-galli: 8 (8: 80% to less than 90%)
[1]; 5g a.i./10a
  herbicidal efficacy (growth inhibition rate level) Echinochloa crus-galli: 9 (9: 90% to less than 100%)
[2]; 1g a.i./10a
  herbicidal efficacy (growth inhibition rate level) Monochoria vaginalis: 7 (7: 70% to less than 80%)
[2]; 5g a.i./10a
  herbicidal efficacy (growth inhibition rate level) Monochoria vaginalis: 7 (7: 70% to less than 80%)
[3]; 1g a.i./10a
  herbicidal efficacy (growth inhibition rate level) Scirpus juncoides: 8 (8: 80% to less than 90%)
[3]; 5g a.i./10a
  herbicidal efficacy (growth inhibition rate level) Scirpus juncoides: 9 (9: 90% to less than 100%)
[4]; 1g a.i./10a
  phytotoxicity (growth inhibition rate level) Rice plants: 0 (0 (exponent): 0% to less than 10% (growth inhibition rate))
[4]; 5g a.i./10a
  phytotoxicity (growth inhibition rate level) Rice plants: 0 (0 (exponent): 0% to less than 10% (growth inhibition rate))

## O=C(N(CC1CC1)c1c([N+](=O)[O-])cnn1-c1nn2c(c1Br)CCCC2)C(F)(F)F [Compound 159]
[1]; 1g a.i./10a
  herbicidal efficacy (growth inhibition rate level) Echinochloa crus-galli: 8 (8: 80% to less than 90%)
[1]; 5g a.i./10a
  herbicidal efficacy (growth inhibition rate level) Echinochloa crus-galli: 9 (9: 90% to less than 100%)
[2]; 1g a.i./10a
  herbicidal efficacy (growth inhibition rate level) Monochoria vaginalis: 7 (7: 70% to less than 80%)
[2]; 5g a.i./10a
  herbicidal efficacy (growth inhibition rate level) Monochoria vaginalis: 8 (8: 80% to less than 90%)
[3]; 1g a.i./10a
  herbicidal efficacy (growth inhibition rate level) Scirpus juncoides: 7 (7: 70% to less than 80%)
[3]; 5g a.i./10a
  herbicidal efficacy (growth inhibition rate level) Scirpus juncoides: 8 (8: 80% to less than 90%)
[4]; 1g a.i./10a
  phytotoxicity (growth inhibition rate level) Rice plants: 0 (0 (exponent): 0% to less than 10% (growth inhibition rate))
[4]; 5g a.i./10a
  phytotoxicity (growth inhibition rate level) Rice plants: 0 (0 (exponent): 0% to less than 10% (growth inhibition rate))

— patent publication US9556183B2, “Substituted pyrazolylpyrazole derivative and use of same as herbicide” (KYOYU AGRI CO., LTD., priority 2013, dated 2017)
